In the supplement of paper PMC11451515:

Tested on: SEM cells
Experiment: cell viability relative to DMSO control; higher = less cytotoxic
Settings: 48 h
Summary of the method: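 Library compounds in DMSO were pin-dosed in an 11-point threefold series (47 μM to 0.79 nM) onto leukemia cells in 1536-well plates (5 μl). Plates held 500 cells/well of NOMO1 or SEM or 1000 cells/well of P12-Ichikawa, each adapted for at least four passages in each medium. Luminescence was read with CellTiter-Glo One after 48 h at 37°C. Viability means the per-plate percentage relative to DMSO wells, using cell-free wells as background.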

[1] = HPLM + 10% dialyzed FBS, 0.000781 µM
[2] = HPLM + 10% dialyzed FBS, 0.00234 µM
[3] = HPLM + 10% dialyzed FBS, 0.00702 µM
[4] = HPLM + 10% dialyzed FBS, 0.0211 µM
[5] = HPLM + 10% dialyzed FBS, 0.0632 µM
[6] = HPLM + 10% dialyzed FBS, 0.19 µM
[7] = HPLM + 10% dialyzed FBS, 0.569 µM
[8] = HPLM + 10% dialyzed FBS, 1.71 µM
[9] = HPLM + 10% dialyzed FBS, 5.12 µM
[10] = HPLM + 10% dialyzed FBS, 15.4 µM
[11] = HPLM + 10% dialyzed FBS, 46.1 µM
[12] = RPMI 5 mM glucose + 10% FBS, 0.000781 µM
[13] = RPMI 5 mM glucose + 10% FBS, 0.00234 µM
[14] = RPMI 5 mM glucose + 10% FBS, 0.00702 µM
[15] = RPMI 5 mM glucose + 10% FBS, 0.0211 µM
[16] = RPMI 5 mM glucose + 10% FBS, 0.0632 µM
[17] = RPMI 5 mM glucose + 10% FBS, 0.19 µM
[18] = RPMI 5 mM glucose + 10% FBS, 0.569 µM
[19] = RPMI 5 mM glucose + 10% FBS, 1.71 µM
[20] = RPMI 5 mM glucose + 10% FBS, 5.12 µM
[21] = RPMI 5 mM glucose + 10% FBS, 15.4 µM
[22] = RPMI 5 mM glucose + 10% FBS, 46.1 µM
[23] = RPMI 5 mM glucose + 10% dialyzed FBS, 0.000781 µM
[24] = RPMI 5 mM glucose + 10% dialyzed FBS, 0.00234 µM
[25] = RPMI 5 mM glucose + 10% dialyzed FBS, 0.00702 µM
[26] = RPMI 5 mM glucose + 10% dialyzed FBS, 0.0211 µM
[27] = RPMI 5 mM glucose + 10% dialyzed FBS, 0.0632 µM
[28] = RPMI 5 mM glucose + 10% dialyzed FBS, 0.19 µM
[29] = RPMI 5 mM glucose + 10% dialyzed FBS, 0.569 µM
[30] = RPMI 5 mM glucose + 10% dialyzed FBS, 1.71 µM
[31] = RPMI 5 mM glucose + 10% dialyzed FBS, 5.12 µM
[32] = RPMI 5 mM glucose + 10% dialyzed FBS, 15.4 µM
[33] = RPMI 5 mM glucose + 10% dialyzed FBS, 46.1 µM

Compound	cell viability [1]	cell viability [2]	cell viability [3]	cell viability [4]	cell viability [5]	cell viability [6]	cell viability [7]	cell viability [8]	cell viability [9]	cell viability [10]	cell viability [11]	cell viability [12]	cell viability [13]	cell viability [14]	cell viability [15]	cell viability [16]	cell viability [17]	cell viability [18]	cell viability [19]	cell viability [20]	cell viability [21]	cell viability [22]	cell viability [23]	cell viability [24]	cell viability [25]	cell viability [26]	cell viability [27]	cell viability [28]	cell viability [29]	cell viability [30]	cell viability [31]	cell viability [32]	cell viability [33]
C[S+](=O)([O-])N1CCc2c(-c3cnc(N)nc3)nc(N3CCOCC3)nc21	88.6%	102%	91.6%	97.5%	100%	96.3%	86%	63.4%	62.7%	43.5%	30.5%	68.5%	82.1%	70.4%	71.4%	75.3%	66.3%	61%	50.5%	38.9%	22.2%	18.3%	88.7%	105%	113%	104%	92.9%	104%	98%	65.9%	55.3%	33.5%	22.2%
OC1=CC2=C(C(=C1)O)C(=O)\C=C(/O2)C3=CC=CC=C3	89.7%	92.5%	93%	107%	94.5%	112%	94.4%	115%	85%	61.9%	8.24%	88.2%	103%	106%	94.2%	105%	101%	92%	104%	77.2%	35.8%	4.9%	85.8%	96.6%	95.3%	91.5%	99.9%	97.7%	97.3%	111%	94.5%	59.6%	11.9%
C=CC(=O)N1CCC[C@@H](n2nc(-c3ccc(Oc4ccccc4)cc3)c3c(N)ncnc32)C1	–	–	–	–	–	–	–	–	–	–	–	95.1%	127%	112%	99%	128%	110%	102%	99.7%	103%	79.9%	33.5%	–	–	–	–	–	–	–	–	–	–	–
CC(C)C[C@H](NC(=O)[C@H](CCc1ccccc1)NC(=O)CN1CCOCC1)C(=O)N[C@@H](Cc1ccccc1)C(=O)N[C@@H](CC(C)C)C(=O)[C@@]1(C)CO1	84.6%	86.5%	100%	8.14%	7.13%	7.08%	6.63%	5.14%	4.16%	1.67%	1.47%	97.5%	102%	65.7%	8.2%	7.68%	6.95%	7.46%	4.9%	2.81%	1.52%	1.37%	72.1%	81.7%	80.6%	8.46%	7.46%	7.29%	6.73%	4.71%	3.02%	1.73%	1.54%
O=C(Nc1cc2cc[nH]c2cn1)c1ccccc1	87.7%	95.6%	90.4%	104%	85.6%	102%	109%	104%	18.5%	4.59%	2.37%	75.6%	89.4%	92.4%	90.8%	92.8%	106%	104%	90%	4.38%	2.43%	1%	85.4%	95.1%	98.7%	98.8%	96.8%	102%	112%	117%	6.2%	5.18%	2.59%
Cc1ccc([S+](=O)([O-])N[C@@H](Cc2ccccc2)C(=O)CCl)cc1	91%	58.6%	93.2%	93.3%	93%	105%	96.4%	109%	103%	85.5%	25.3%	87.4%	53.1%	94%	97%	95.8%	114%	95.6%	108%	104%	87%	22.1%	80.5%	49.8%	100%	104%	88.6%	95.4%	93.6%	107%	100%	94.3%	23.4%
S=C1N\C=N/C2=C1[NH]C=N2	91.2%	116%	136%	121%	131%	126%	124%	105%	106%	90.6%	81.7%	104%	119%	144%	119%	132%	139%	108%	93.3%	79.5%	73.2%	66.4%	105%	119%	138%	106%	134%	119%	91.3%	56.7%	48.5%	42.4%	33.7%
COC(=O)[C@@H]1[C@H]2C[C@H]3c4[nH]c5ccccc5c4CCN3C[C@@H]2CC[C@@H]1O	86.1%	90.4%	102%	110%	104%	110%	120%	115%	116%	120%	116%	94.7%	112%	122%	104%	110%	110%	135%	119%	120%	128%	125%	98.6%	109%	108%	120%	125%	124%	119%	133%	130%	133%	118%
